Data published in patent publication US5869271A, “G-beta-gamma regulated phosphatidylinositol-3' kinase” (Onyx Pharmaceuticals, priority 1997, dated 1999).

Experiments:
[1] = system: Gβγ-activated PI3K (PI3Ks A and B; p117/p101 and p120/p101 heterodimers); test: PI3K assay on purified pig neutrophil Gβγ-activated PI3Ks A and B; assay type: biochemical; settings: 100 nM wortmannin; 5 μM ATP in the assays
[2] = molecular target: free p120 PI3K catalytic subunit (Sus scrofa, UniProt O02697); test: PI3K assay on free recombinant p120 (Sf9-derived); assay type: biochemical, porcine
Method: Assays contained either 7 nM p101/p120 or 36 nM p120 alone (final concentrations) which were incubated with various reagents; 10 mM NaF and 30 μM AlCl3 (A/F) ; 1 μM Gβγ-subunits (βγ); 2 μM Gα-GDP; 100 nM wortmannin (W) or 50 μM tyrosine phosphorylated peptide (PY) for a total of 15 minutes (at 0° C.) prior to starting the assays by adding [γ^32 P]-ATP; [^32 P]-incorporated into [^32 P]-PtdIns(3,4,5) P3 was quantified. The data shown are means (n=2).
Purified aliquots of Sf9 -derived or pig neutrophil cytosol-derived PI3K were diluted in ice-cold 0.12M NaCl, 25 mM HEPES, 1 mM EGTA, 1 mM DTT, 1 mg-ml^-1 BSA, 1% betaine, 0.02%, w/v, Tween-20, pH 7.4, 0° C. to an appropriate extent, then 5 μl aliquots were stored on ice until assayed. […] 30 μl of a mixture of phospholipids with or without Gβγs and/or Gαs (either GDP-bound or activated) was added to the 5 μl fractions, or 10 μl of beads, and mixed. After 10 minutes on ice, 5-10 μl of last wash buffer, supplemented with MgCl2 to give a final concentration in the extant assay volume of 3.5 mM, was added and mixed. Six minutes later, 5 μl of last wash buffer was added (to give a final assay volume of 50 μl) containing [^32 ]-ATP (typically 10 μCi assay^-1, Amersham, PB10168) and 3.5 mM MgCl2, tubes were mixed and transferred to a 30° C. water bath. […]

[3] = molecular target: T1, PI3K activity in α-(EE)-p101 immunoprecipitates from U937 cells (Homo sapiens, UniProt P48736); test: PI3K assay on α-(EE)-p101 immunoprecipitates from transfected U937 cells; assay type: biochemical
T1 construct: U937 cells (human) contain an endogenous PI3K catalytic subunit; expressed in transfected cells; host or cells: U937 (p101 transfected, catalytic subunit endogenous)
Method: U937 cells were transiently transfected with mammalian expression vectors encoding either (EE)120 or (EE)101, co-transfected in combination with mammalian expression vectors encoding myc101, myc120, or an irrelevant control myc fusion protein, as indicated. A total of 40 μg of vector DNA was used. After co-transfection, the cells lysed, precleaned and immunoprecipitated with protein G sepharose covalently cross-linked to α-(EE) monoclonal antibody as described more fully in the Examples herein. The resulting immunoprecipitates were washed and Gβγ-activated (1 μM, final concentration) PI3K activity was assayed. The PI3K activity detected in immunoprecipitates from cells transfected with irrelevant (EE)-tagged protein, either with or without Gβγs was subtracted from the data shown (these were means of 1896 dpm and 2862 dpm in the absence and presence of Gβγs, respectively).
If the PI3K assays were performed on immunoprecipitates from U937 cells (see following examples) then the PI3K was immobilized on 10 μl of packed protein G Sepharose beads in an ice-cold buffer defined above. 30 μl of a mixture of phospholipids with or without Gβγs and/or Gαs (either GDP-bound or activated) was added to the 5 μl fractions, or 10 μl of beads, and mixed. […]

neutrophils = settings: cited from earlier work

Sequence of free p120 PI3K catalytic subunit (O02697 whole entry): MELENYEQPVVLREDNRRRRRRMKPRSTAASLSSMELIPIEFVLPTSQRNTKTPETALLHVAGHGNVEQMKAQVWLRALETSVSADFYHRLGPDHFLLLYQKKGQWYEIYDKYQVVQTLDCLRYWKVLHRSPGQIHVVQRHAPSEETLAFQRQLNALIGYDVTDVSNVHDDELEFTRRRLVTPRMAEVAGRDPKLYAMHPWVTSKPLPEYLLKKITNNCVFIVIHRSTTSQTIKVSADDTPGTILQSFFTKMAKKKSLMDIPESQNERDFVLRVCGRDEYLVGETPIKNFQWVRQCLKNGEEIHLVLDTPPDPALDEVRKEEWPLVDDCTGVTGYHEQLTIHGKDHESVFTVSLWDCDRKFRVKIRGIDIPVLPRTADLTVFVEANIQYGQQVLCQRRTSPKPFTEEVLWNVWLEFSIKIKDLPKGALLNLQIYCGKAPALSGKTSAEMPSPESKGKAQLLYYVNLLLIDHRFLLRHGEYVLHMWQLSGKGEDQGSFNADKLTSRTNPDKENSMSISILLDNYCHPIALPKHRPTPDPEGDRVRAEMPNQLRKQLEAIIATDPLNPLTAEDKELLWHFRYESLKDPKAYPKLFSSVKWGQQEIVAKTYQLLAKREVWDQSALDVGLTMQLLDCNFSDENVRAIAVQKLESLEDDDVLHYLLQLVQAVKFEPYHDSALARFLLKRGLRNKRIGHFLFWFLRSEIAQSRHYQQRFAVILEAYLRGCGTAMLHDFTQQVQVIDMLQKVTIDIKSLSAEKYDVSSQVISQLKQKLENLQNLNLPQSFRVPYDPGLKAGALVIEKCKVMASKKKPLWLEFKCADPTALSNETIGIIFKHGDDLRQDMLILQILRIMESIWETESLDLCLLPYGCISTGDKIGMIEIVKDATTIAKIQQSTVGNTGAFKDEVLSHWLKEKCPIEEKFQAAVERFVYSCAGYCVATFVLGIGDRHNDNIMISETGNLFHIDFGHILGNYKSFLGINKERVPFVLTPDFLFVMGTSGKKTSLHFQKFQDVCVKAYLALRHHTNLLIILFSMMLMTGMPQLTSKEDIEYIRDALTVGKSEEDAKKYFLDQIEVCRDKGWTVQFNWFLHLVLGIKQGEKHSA
T1 sequence (P48736 whole entry): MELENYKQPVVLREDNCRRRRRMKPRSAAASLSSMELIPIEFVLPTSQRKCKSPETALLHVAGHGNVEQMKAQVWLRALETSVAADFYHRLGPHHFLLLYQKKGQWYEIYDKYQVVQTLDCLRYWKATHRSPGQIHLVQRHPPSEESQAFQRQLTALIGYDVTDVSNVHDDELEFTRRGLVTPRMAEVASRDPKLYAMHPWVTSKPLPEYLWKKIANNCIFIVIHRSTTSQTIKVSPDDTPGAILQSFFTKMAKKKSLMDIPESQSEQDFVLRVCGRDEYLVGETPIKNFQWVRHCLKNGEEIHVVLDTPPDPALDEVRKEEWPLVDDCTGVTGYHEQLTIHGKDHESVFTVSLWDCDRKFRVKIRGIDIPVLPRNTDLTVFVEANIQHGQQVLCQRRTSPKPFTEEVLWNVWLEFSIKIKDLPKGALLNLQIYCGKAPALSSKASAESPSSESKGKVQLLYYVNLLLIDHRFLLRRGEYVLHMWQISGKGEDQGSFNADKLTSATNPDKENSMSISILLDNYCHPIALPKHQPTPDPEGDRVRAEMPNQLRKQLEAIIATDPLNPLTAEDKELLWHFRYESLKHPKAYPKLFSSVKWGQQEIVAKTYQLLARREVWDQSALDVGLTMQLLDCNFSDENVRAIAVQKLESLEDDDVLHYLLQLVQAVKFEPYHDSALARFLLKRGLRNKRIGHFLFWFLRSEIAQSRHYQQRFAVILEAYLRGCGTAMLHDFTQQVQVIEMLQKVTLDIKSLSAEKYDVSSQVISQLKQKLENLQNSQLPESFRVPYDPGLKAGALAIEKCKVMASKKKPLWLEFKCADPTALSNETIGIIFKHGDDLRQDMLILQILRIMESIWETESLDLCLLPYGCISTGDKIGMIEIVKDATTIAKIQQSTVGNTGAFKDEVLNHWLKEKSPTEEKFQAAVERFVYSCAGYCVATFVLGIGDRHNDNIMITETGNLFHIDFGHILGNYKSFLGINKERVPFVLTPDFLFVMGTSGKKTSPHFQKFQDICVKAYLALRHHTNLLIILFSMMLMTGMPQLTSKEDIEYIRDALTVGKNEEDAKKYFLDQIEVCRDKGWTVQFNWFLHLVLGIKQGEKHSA
T1 sequence (as listed by the source partner): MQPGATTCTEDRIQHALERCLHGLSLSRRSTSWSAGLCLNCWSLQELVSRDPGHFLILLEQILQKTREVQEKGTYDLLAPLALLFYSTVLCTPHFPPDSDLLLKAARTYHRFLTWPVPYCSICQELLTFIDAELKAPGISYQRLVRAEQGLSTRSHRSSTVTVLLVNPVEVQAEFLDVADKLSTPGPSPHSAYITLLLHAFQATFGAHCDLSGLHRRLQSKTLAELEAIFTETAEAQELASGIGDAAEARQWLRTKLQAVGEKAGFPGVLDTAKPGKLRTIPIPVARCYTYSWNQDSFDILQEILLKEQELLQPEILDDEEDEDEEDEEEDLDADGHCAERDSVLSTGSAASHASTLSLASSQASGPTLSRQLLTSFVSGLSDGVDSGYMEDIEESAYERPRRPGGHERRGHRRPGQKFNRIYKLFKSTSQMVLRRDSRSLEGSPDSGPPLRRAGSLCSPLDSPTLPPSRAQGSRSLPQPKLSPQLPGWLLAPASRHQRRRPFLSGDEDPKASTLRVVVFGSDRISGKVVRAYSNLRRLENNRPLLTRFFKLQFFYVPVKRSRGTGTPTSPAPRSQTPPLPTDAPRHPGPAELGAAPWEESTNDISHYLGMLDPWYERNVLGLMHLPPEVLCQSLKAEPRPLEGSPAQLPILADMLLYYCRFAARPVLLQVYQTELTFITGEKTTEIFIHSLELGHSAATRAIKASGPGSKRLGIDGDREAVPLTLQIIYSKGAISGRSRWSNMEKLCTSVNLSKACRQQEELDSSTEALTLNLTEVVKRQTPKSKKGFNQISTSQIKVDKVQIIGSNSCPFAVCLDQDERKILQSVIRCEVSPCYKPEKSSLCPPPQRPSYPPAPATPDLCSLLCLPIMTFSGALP

Structure (SMILES): COC[C@H]1OC(=O)c2coc3c2[C@@]1(C)C1=C(C3=O)[C@@H]2CCC(=O)[C@@]2(C)C[C@H]1OC(C)=O [wortmannin]
- inhibition of PI3K activity by wortmannin [1]: completely inhibited
- wortmannin sensitivity of free p120 PI3K activity [2]: wortmannin-sensitive
- wortmannin sensitivity of PI3K activity in α-(EE)-p101 immunoprecipitates [3]: wortmannin-sensitive
- fMLP-induced respiratory burst response (neutrophils; Thelen et al., 1994): prevents
- superoxide production in neutrophils (neutrophils): shutdown of superoxide production
